Data taken from patent US10711033B2, “Branched chain-containing aromatic compound” (AJINOMOTO CO., INC., priority 2010, dated 2020).

Assay: Solubility (20° C.) of branched chain-containing and straight chain-containing aromatic compounds in various solvents
Details: for solubility in CPME: saturated in CPME (cyclopentylmethylether) at 20° C.; for solubility in chloroform: saturated in chloroform at 20° C.; for solubility in ethyl acetate: saturated in ethyl acetate at 20° C.; for solubility in isopropyl acetate: saturated in isopropyl acetate at 20° C.; for solubility in toluene: saturated in toluene at 20° C.

Row | Compound | solubility in CPME | solubility in chloroform | solubility in ethyl acetate | solubility in isopropyl acetate | solubility in toluene
1 | 3,4,5-tri(2′,3′-dihydrophytyloxy)benzyl alcohol [Example 5] | >50 wt % | >50 wt % | >50 wt % | >50 wt % | >50 wt %
2 | CCCCCCCCCCCCCCCCCCOc1cc(CO)cc(OCCCCCCCCCCCCCCCCCC)c1OCCCCCCCCCCCCCCCCCC [Comparative Example 1] | 4.5 wt % | 9.9 wt % | 0.2 wt % | 0.02 wt % | 2.6 wt %
3 | CCCCCCCCCCCCCCCCCCCCCCOc1ccc(CO)c(OCCCCCCCCCCCCCCCCCCCCCC)c1 [compound 2] |  |  | 0.3 wt % | 0.06 wt % | 
4 | CCCCCCCCCCCCCCCCCCCCCCOc1ccc(C(N)c2ccc(C)cc2)cc1 (centres unmarked) [compound 3] | 0.01 wt % | 0.8 wt % | 0.2 wt % | 0.1 wt % | 0.01 wt %
5 | TERGITOL-Adduct of 3-hydroxymethylphenol [Example 21] | >50 wt % | >50 wt % | >50 wt % |  | 
